Tests used:
Type in all cases: in vivo
[1] = Determination of acute toxicity in mice after intravenous administration; conditions: mouse, in vivo, iv, observation period 14 days
Description: (§1) The acute toxicity of the test compound was determined in mice (observationperiod: 14 days) after intravenous administration.

mice = test: as above; conditions: 35 mg/kg i.v., observation period 14 days
Description: as §1

blood circulation = test: Effect on blood circulation in anesthetized dogs (i.v.); set-up: Duration: unit not given here; conditions: for Effect on average arterial blood pressure (first figure of the pair): figure before the slash; for Decrease in contractility dp/dt max: left ventricle
Description: The blood circulation tests were carried out on dogs with a body weight of 18-29 kg under chloraloseurethane-nembutal anesthesia (54+270+10 mg/kg i.v.). After opening the thorax in the 4th left intercostal space the animals were ventilated with room air by means of a Harvard respirator. The arterial blood pressure was measured in the arteria carotis by a Statham pressure transducer; the heart rate was measured electronically from the sequence of the R-peaks of the electrocardiogram. The maximum rate of pressure increase ([…]) in the left ventricula was measured by means of a Konigsberg pressure received and a Grass differential amplifier. All parameters were recorded by means of a direct-writer. For anticoagulation the animals were injected i.v. with a solution of 10 mg/kg of sodium polyethylenesulfonate in 20% polydiol. The test compounds were administered intravenously to groups of 3 to 4 dogs.

| Compound | LD50 at 336 h [1] [mg/kg] | Acute toxicity: animals died (mice) | Decrease in heart rate (blood circulation; 1.0 mg/kg i.v.) [min⁻¹] | Duration (blood circulation; 1.0 mg/kg i.v.) | Effect on average arterial blood pressure (first figure of the pair) (blood circulation; 1.0 mg/kg i.v.) | Decrease in contractility dp/dt max (blood circulation; 1.0 mg/kg i.v.) | Decrease in heart rate (blood circulation; 0.5 mg/kg i.v.) [min⁻¹] | Duration (blood circulation; 0.5 mg/kg i.v.) | Effect on average arterial blood pressure (second figure of the pair) (blood circulation; 0.5 mg/kg i.v., figure after the slash) [mm Hg] | Effect on average arterial blood pressure (first figure of the pair) (blood circulation; 0.5 mg/kg i.v.) [mm Hg] | Decrease in contractility dp/dt max (blood circulation; 0.5 mg/kg i.v.) |
| --- | --- | --- | --- | --- | --- | --- | --- | --- | --- | --- | --- |
| COc1ccc2nc(-c3ccc(OCC(O)CN(C)CCc4ccc(OC)c(OC)c4)cc3)n(C)c(=O)c2c1.Cl.Cl (centres unmarked) [B, 2-{4-[2-Hydroxy-3-(2-(3,4-dimethoxy-phenyl)-N-methylethylamino)-propoxy]-phenyl}-3-methyl-6-methoxy-3,4-dihydro-quinazolin-4-one dihydrochloride] | > 35 | 0 out of 5 | -28 | 45 | -16 mm Hg | -17 | – | – | – | – | – |
| COc1ccc2nc(-c3ccc(OCC(O)CNCCc4ccccc4OC)cc3)n(C)c(=O)c2c1.Cl.Cl (centres unmarked) [C, 2-{4-[2-Hydroxy-3-(2-(2-methoxy-phenyl)-ethylamino)-propoxy]-phenyl}-3-methyl-6-methoxy-3,4-dihydroquinazolin-4-one dihydrochloride] | > 35 | 0 out of 5 | -22 | > 36 | +1 mm Hg | -14 | – | – | – | – | – |
| COc1ccc2nc(-c3ccc(OCC(O)CNC(C)(C)C)cc3)n(C)c(=O)c2c1 (centres unmarked) [Compound A, 2-[4-(2-Hydroxy-3-tert.butylamino-propoxy)-phenyl]-3-methyl-6-methoxy-3,4-dihydro-quinazolin-4-one] | > 35 | 0 out of 5 | – | – | – | – | -21 | > 55 | -8 | -20 | -33 |
| COc1ccc2nc(-c3ccc(OCC(O)CNC(C)C)cc3)n(C)c(=O)c2c1 (centres unmarked) [D, 2-[4-(2-Hydroxy-3-isopropylamino-propoxy)-phenyl]-3-methyl-6-methoxy-3,4-dihydro-quinazolin-4-one] | – | – | -30 | > 40 | -5 mm Hg | -27 | – | – | – | – | – |
| COc1cc2nc(-c3ccc(OCC(O)CNCCOc4ccccc4C)cc3)n(C)c(=O)c2cc1OC (centres unmarked) [E, 2-{4-[2-Hydroxy-3-(2-(2-methyl-phenoxy)-ethylamino)-propoxy]-phenyl}-3-methyl-6,7-dimethoxy-3,4-dihydroquinazolin-4-one] | > 35 | 0 out of 5 | -11 | > 36 | -13 mm Hg | -14 | – | – | – | – | – |
| COc1cccc2c(=O)n(C)c(-c3ccc(OCCCNCC(O)COc4cccc(C)c4)cc3)nc12 (centres unmarked) [F, 2-{4-[3-(2-Hydroxy-3-(3-methyl-phenoxy)-propylamino)-propoxy]-phenyl}-3-methyl-8-methoxy-3,4-dihydroquinazolin-4-one] | > 35 | 0 out of 5 | -23 | > 63 | -11 mm Hg | -23 | – | – | – | – | – |

Reference: patent publication US4379788A, “2-Phenyl-pyrimidones” (Dr. Karl Thomae Gesellschaft mit beschrankter Haftung, priority 1980, dated 1983)
